US4002623A, “Anti-inflammatory 1-[3-(dialkylamino)propyl]-2-acylaminobenzimidazoles and 2-acylamino-3-[3-(dialkylamino)-propyl]imidazo[4,5-b]pyridines” (Pfizer Inc., priority 1974, dated 1977)

Test: adjuvant arthritis screen (Walz et al.), swelling of the non-injected left hind foot on Day 16
Type: in vivo, male inbred Lewis rats
Details: Rattus norvegicus, 384 h, 10 mg./kg. ip, daily day -1 through day 15, read-out: Activity Percent Inhibition
Text: The adjuvant arthritis test described by Walz et al., Ann. Rheum. Dis., 30, 303 (1971) was selected as the method of choice for the determination of the extent of which the novel compounds of the present invention are therapeutically effective as anti-inflammatory agents. Adjuvant arthritis is a crippling deformity in rats resulting from diffuse connective tissue involvement. It is considered by some authorities to be the best available experimental animal model of human rheumatoid arthritis because of its strong clinical and pathological similarities to the human disease and because it can be effectively treated with known anti-arthritic drugs. In this test, lesions resembling those of human rheumatoid arthritis are induced by the injection of complete Freund's adjuvant into one hind leg of a rat. A vigorous inflammatory response occurs in the injected hind leg and reaches its greatest size in about four days. This primary response is followed by the development of a second inflammatory response, appearing about 12-16 days post-injection, that occurs in the uninjected hind leg. While the compounds of the invention are capable of inhibiting the degree of inflammation in both legs, the inhibition of swelling in the uninjected leg at 16 days is considered to be the more meaningful measure of antiarthritic activity.
The adjuvant arthritis screen as described by Walz et al. (Ann. Rheum. Dis., 30: 303 (1971), was used to evaluate the above prepared compounds.
The screen is conducted using male inbred Lewis rats weighing approximately 250 gm. The animals are dosed with drug beginning on day- 1 and continuing daily through day 15. On Day 0, the subplanter surface of the right hind paw is injected with 0.1cc of a 1% suspension of Mycobacterium butyricum (Freunds adjuvant) in Primol (Esso). The swelling of the non-injected left hind foot on Day 16, resulting from immune response to adjuvant, was determined for dosed animals and controls. The foot volume is measured by immersing the paw to the anatomical hairline into a mercury reservoir which is connected to a Statham pressure transducer and a recording device. The results are expressed as % inhibition calculated according to the following equation: [formula] The results obtained are as follows for [drawing 22] where Z is --N(CH3)2 and X is carbon: […]
In the case of `O=C(Nc1nc2ccccc2n1CCCN1CCN(Cc2ccccc2)CC1)c1ccc(C(F)(F)F)cc1` [4-Trifluoromethylphenyl; H; H; drawing 27, 2-(4-trifluoromethylbenzamido)-1-[3-(4-benzyl-1-piperazinyl)-propyl]benzimidazole], the inhibition in vivo at 10 mg/kg is reported as 47%. `O=C(Nc1nc2ccccc2n1CCCN1CCNCC1)c1ccc(C(F)(F)F)cc1` [4-Trifluoromethylphenyl; H; H; drawing 28, 2-(4-trifluoromethylbenzamido)-1-[3-(1-piperazinyl)propyl]benzimidazole] showed an inhibition in vivo at 10 mg/kg of 28%. `O=C(Nc1nc2ccccc2n1CCCN1CCN(Cc2ccccc2)CC1)c1ccccc1` [Phenyl; H; H; drawing 27] showed an inhibition in vivo at 10 mg/kg of 44%. Molecule `O=C(Nc1nc2ccccc2n1CCCN1CCNCC1)c1ccccc1` [Phenyl; H; H; drawing 28] has an inhibition in vivo at 10 mg/kg of 19%.

Same assay, conditions: Rattus norvegicus, 384 h, 10 mg./kg. po, daily day -1 through day 15, read-out: Activity Percent Inhibition
`CN1CCN(CCCn2c(NC(=O)c3ccc(C(F)(F)F)cc3)nc3cc(C(F)(F)F)ccc32)CC1` [4-Trifluoromethylphenyl; CF3; H; drawing 24] showed an inhibition in vivo at 10 mg/kg of 28%. For `CN1CCN(CCCn2c(NC(=O)c3ccc(C(F)(F)F)cc3)nc3cc(Cl)ccc32)CC1` [4-Trifluoromethylphenyl; Cl; H; drawing 24, 1-[3-(4-methyl-1-piperazinyl)propyl]-2-(4-trifluoromethylbenzamido)-5-chlorobenzimidazole], the inhibition in vivo at 10 mg/kg was 38%.

Same assay, conditions: Rattus norvegicus, 384 h, 20 mg./kg. po, daily day -1 through day 15, read-out: Activity Percent Inhibition
`COc1ccc(C(=O)Nc2nc3cc(S(=O)(=O)N(C)C)ccc3n2CCCN2CCN(C)CC2)cc1` [4-Methoxyphenyl; SO2 N(CH3)2; H; drawing 24] showed an inhibition in vivo at 20 mg/kg of 27%. Molecule `Cc1ccc2c(c1)nc(NC(=O)c1ccc(C(F)(F)F)cc1)n2CCCN1CCN(C)CC1` [4-Trifluoromethylphenyl; CH3; H; drawing 24] has an inhibition in vivo at 20 mg/kg of 35%. For `Cc1ccc2nc(NC(=O)c3ccc(C(F)(F)F)cc3)n(CCCN3CCN(C)CC3)c2c1` [4-Trifluoromethylphenyl; H; CH3; drawing 24], the inhibition in vivo at 20 mg/kg was 50%. Work on `CN1CCN(CCCn2c(NC(=O)c3ccc(C(F)(F)F)cc3)nc3ccccc32)CC1` [4-Trifluoromethylphenyl; H; H; drawing 24] yielded an inhibition in vivo at 20 mg/kg of 51%. With `CN1CCN(CCCn2c(NC(=O)c3ccc(C(F)(F)F)cc3)nc3cccnc32)CC1` [4-Trifluoromethylphenyl; H; H; drawing 25] the inhibition in vivo at 20 mg/kg was 14%. With `CCCCCCCCCC(=O)Nc1nc2ccccc2n1CCCN1CCN(C)CC1` [CH3 (CH2)8; H; H; drawing 24] the inhibition in vivo at 20 mg/kg was 45%. Work on `Cc1cc2nc(NC(=O)c3ccccc3)n(CCCN3CCN(C)CC3)c2cc1C` [Phenyl; CH3; CH3; drawing 24, 1-[3-(4-methyl-1-piperazinyl)propyl]-2-benzamido-5,6-dimethylbenzimidazole] yielded an inhibition in vivo at 20 mg/kg of 31%. Molecule `Cc1ccc2nc(NC(=O)c3ccccc3)n(CCCN3CCN(C)CC3)c2c1` [Phenyl; H; CH3; drawing 24] has an inhibition in vivo at 20 mg/kg of 23%. `CN1CCN(CCCn2c(NC(=O)c3ccccc3)nc3cc(S(=O)(=O)N(C)C)ccc32)CC1` [Phenyl; SO2 N(CH3)2; H; drawing 24] showed an inhibition in vivo at 20 mg/kg of 32%.

Same assay, conditions: Rattus norvegicus, 384 h, 33 mg./kg. ip, daily day -1 through day 15, read-out: Activity Percent Inhibition
With `CN1CCN(CCCn2c(NC(=O)c3ccc(C(F)(F)F)cc3)nc3cc(C(F)(F)F)ccc32)CC1` [4-Trifluoromethylphenyl; CF3; H; drawing 24] the inhibition in vivo at 33 mg/kg was 71%. In the case of `CN1CCN(CCCn2c(NC(=O)c3ccc(C(F)(F)F)cc3)nc3cc(Cl)ccc32)CC1` [4-Trifluoromethylphenyl; Cl; H; drawing 24, 1-[3-(4-methyl-1-piperazinyl)propyl]-2-(4-trifluoromethylbenzamido)-5-chlorobenzimidazole], the inhibition in vivo at 33 mg/kg is reported as 72%. Molecule `O=C(Nc1nc2ccccc2n1CCCN1CCOCC1)c1ccc(C(F)(F)F)cc1` [4-Trifluoromethylphenyl; H; H; drawing 23] has an inhibition in vivo at 33 mg/kg of 35%. Work on `CN1CCN(CCCn2c(NC(=O)c3ccc(C(F)(F)F)cc3)nc3ccccc32)CC1` [4-Trifluoromethylphenyl; H; H; drawing 24] yielded an inhibition in vivo at 33 mg/kg of 77%. `O=C(Nc1nc2ccccc2n1CCCN1CCCCC1)c1ccc(C(F)(F)F)cc1` [4-Trifluoromethylphenyl; H; H; drawing 26, 1-[3-(1-piperidinyl)propyl]-2-(4-trifluoromethylbenzamido)benzimidazole] showed an inhibition in vivo at 33 mg/kg of 79%. In the case of `COc1ccc2c(c1)nc(NC(=O)c1ccc(C(F)(F)F)cc1)n2CCCN1CCN(C)CC1` [4-Trifluoromethylphenyl; OCH3; H; drawing 24], the inhibition in vivo at 33 mg/kg is reported as 69%. Work on `CN1CCN(CCCn2c(NC(=O)c3ccc(C(C)(C)C)cc3)nc3ccccc32)CC1` [4-t-Butylphenyl; H; H; drawing 24] yielded an inhibition in vivo at 33 mg/kg of 26%. Molecule `CC(C)(C)CC(=O)Nc1nc2ccccc2n1CCCN1CCOCC1` [(CH3)3 CCH2; H; H; drawing 23] has an inhibition in vivo at 33 mg/kg of 13%. With `COCC(=O)Nc1nc2ccccc2n1CCCN(C)C` [CH3 OCH2; H; H; Z = N(CH3)2] the inhibition in vivo at 33 mg/kg was 32%. With `COCC(=O)Nc1nc2ccccc2n1CCCN1CCOCC1` [CH3 OCH2; H; H; drawing 23] the inhibition in vivo at 33 mg/kg was 21%. In the case of `CN1CCN(CCCn2c(NC(=O)C3CCC3)nc3ccccc32)CC1` [Cyclobutyl; H; H; drawing 24], the inhibition in vivo at 33 mg/kg is reported as 34%. `O=C(Nc1nc2ccccc2n1CCCN1CCCCC1)c1ccco1` [Furyl; H; H; drawing 26] gave an inhibition in vivo at 33 mg/kg of 12%. `CN1CCN(CCCn2c(NC(=O)c3ccccc3)nc3cc(C(F)(F)F)ccc32)CC1` [Phenyl; CF3; H; drawing 24] gave an inhibition in vivo at 33 mg/kg of 29%. In the case of `CN1CCN(CCCn2c(NC(=O)c3ccccc3)nc3cc(Cl)ccc32)CC1` [Phenyl; Cl; H; drawing 24], the inhibition in vivo at 33 mg/kg is reported as 41%. Work on `CN(C)CCCn1c(NC(=O)c2ccccc2)nc2ccccc21` [Phenyl; H; H; Z = N(CH3)2] yielded an inhibition in vivo at 33 mg/kg of 8%. `O=C(Nc1nc2ccccc2n1CCCN1CCOCC1)c1ccccc1` [Phenyl; H; H; drawing 23] showed an inhibition in vivo at 33 mg/kg of 15%. `COc1ccc2c(c1)nc(NC(=O)c1ccccc1)n2CCCN1CCN(C)CC1` [Phenyl; OCH3; H; drawing 24] showed an inhibition in vivo at 33 mg/kg of 27%. Molecule `O=C(C=Cc1ccccc1)Nc1nc2ccccc2n1CCCN1CCCCC1` [Styryl; H; H; drawing 26] has an inhibition in vivo at 33 mg/kg of 33%. In the case of `CN1CCN(CCCn2c(NC(=O)c3ccc(-c4ccccc4)cc3)nc3ccccc32)CC1` [p-Phenylphenyl; H; H; drawing 24], the inhibition in vivo at 33 mg/kg is reported as 46%.
